# Laboratory results as given in US20240383869A1, “ARYLACETYL INHIBITORS OF TG2 AND USES THEREOF” (UNIVERSITY OF OTTAWA, priority 2021, published 2024).
# Like-named read-outs stand apart in the source and are kept apart here.
# Biological target: T1, hTG2 (Homo sapiens, UniProt P21980)
# T1 sequence (P21980 1-687): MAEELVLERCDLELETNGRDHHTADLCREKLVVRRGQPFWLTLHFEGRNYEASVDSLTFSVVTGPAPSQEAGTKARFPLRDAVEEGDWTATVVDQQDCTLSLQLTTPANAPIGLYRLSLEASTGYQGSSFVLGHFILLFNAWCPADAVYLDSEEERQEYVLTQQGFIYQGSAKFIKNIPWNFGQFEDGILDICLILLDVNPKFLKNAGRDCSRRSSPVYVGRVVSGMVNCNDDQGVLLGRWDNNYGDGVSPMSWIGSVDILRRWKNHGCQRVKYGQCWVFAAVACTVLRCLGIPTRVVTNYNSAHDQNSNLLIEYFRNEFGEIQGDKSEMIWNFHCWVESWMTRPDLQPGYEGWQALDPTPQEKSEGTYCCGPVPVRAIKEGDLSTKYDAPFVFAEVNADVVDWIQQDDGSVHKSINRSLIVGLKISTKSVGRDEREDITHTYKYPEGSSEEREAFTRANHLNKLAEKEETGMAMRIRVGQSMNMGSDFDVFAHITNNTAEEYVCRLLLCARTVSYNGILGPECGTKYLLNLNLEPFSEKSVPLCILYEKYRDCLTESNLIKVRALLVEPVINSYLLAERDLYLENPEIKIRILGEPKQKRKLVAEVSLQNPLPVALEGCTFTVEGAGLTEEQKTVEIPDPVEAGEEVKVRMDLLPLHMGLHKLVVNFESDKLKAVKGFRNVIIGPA
# Experiment: biochemical
# Description: The ability of the compounds to inhibit TG2 transamidase activity and the kinetics of TG2 inhibition were investigated using a colorimetric activity assay, as follows:
# Colorimetric transamidase activity assay. The activities of hTG1, hTG2 and hTG6 were measured via a colorimetric assay using the chromogenic substrate Cbz-Glu(γ-p-nitrophenyl ester)Gly (AL5), as described (Leblanc, A. et al., “Kinetic studies of guinea pig liver transglutaminase reveal a general-base-catalyzed deacylation mechanism.” Biochemistry 2001, 40 (28), 8335-8342). Assays were conducted at 25° C. in 50 mM MOPS buffer (pH 6.95) containing 7.5 mM CaCl2. […] The substrate AL5 was prepared in as a stock solution in DMSO such that the final concentration of this co-solvent was constant at 2.5% v/v. Stock solutions of the inhibitors were made in water ranging in concentration from 100-500 μM. The reaction was initiated with the addition of enzyme, 0.10 μM hTG1, 0.25 μM hTG2 (4.6 mU/mL) or 0.32 μM hTG6. Formation of hydrolysis product, p-nitrophenolate (pNP), was monitored at 405 nm in a polystyrene 96-well microplate using a BioTek Synergy 4 plate reader. The observed first-order rate constants of inactivation (kobs) were determined via non-linear regression fit to a mono-exponential model (Eqn 1) of absorbance versus time curves. These rate constants (kobs) were in turn fit to a saturation kinetics model (Eqn 2), by non-linear regression, providing the kinetic parameters kinact and KI, as previously described by Stone and Hofsteenge (Stone, S. R. and Hofsteenge, J., “Specificity of activated human protein C.” Biochem. J. 1985, 230 (2), 497-502). […] Experiments were completed in triplicate at minimum.
# Fitting of this time-dependent inactivation to a monoexponential equation gave first-order rate constants, kobs. […] In some cases, the kinetic data were fitted to a linear double reciprocal equation.
# [1] = fit to saturation kinetics model, 25° C., pH 6.95, 100 μM AL5, read-out: KI (converted)
# [2] = fit to saturation kinetics model, 25° C., pH 6.95, 100 μM AL5, read-out: kinact (converted)
# [3] = fit to saturation kinetics model, 25° C., pH 6.95, 100 μM AL5, read-out: kinact/KI (converted)
# [4] = values determined using a double-reciprocal analysis, read-out: KI (converted)
# [5] = values determined using a double-reciprocal analysis, read-out: kinact (converted)
# [6] = values determined using a double-reciprocal analysis, read-out: kinact/KI (converted)
Compound,Ki [1],kinact [2],kinact/KI [3],also measured
"C=CC(=O)NCCCC[C@H](NC(=O)CC)C(=O)N1CCN(C(=O)c2cccc3ccccc23)CC1 [Inhibitor 40, (S)-N-(6-(4-(1-naphthoyl)piperazin-1-yl)-6-oxo-5-propionamidohexyl)acrylamide]",5.1 ± 1 µM,0.00883 s⁻¹,1720 M⁻¹ s⁻¹,
"C=CC(=O)NCCCC[C@H](NC(C)=O)C(=O)N1CCN(C(=O)c2cccc3ccccc23)CC1 [Inhibitor 41, (S)-N-(6-(4-(1-naphthoyl)piperazin-1-yl)-5-acetamido-6-oxohexyl)acrylamide]",,,,kinact: 0.0242 s⁻¹; kinact/KI: 735 M⁻¹ s⁻¹; Ki [4]: 33 ± 14.5 µM
"C=CC(=O)NCCCC[C@H](NC(=O)c1ccccc1)C(=O)N1CCN(C(=O)c2cccc3ccccc23)CC1 [Inhibitor 61, (S)-N-(1-(4-(1-naphthoyl)piperazin-1-yl)-6-acrylamido-1-oxohexan-2-yl)benzamide]",27.6 ± 8.1 µM,,,kinact: 0.0118 s⁻¹; kinact/KI: 983 M⁻¹ s⁻¹; kinact/KI (pH 6.95): 807 M⁻¹ s⁻¹; Ki [4]: 12 µM
"C=CC(=O)NCCCC[C@H](NC(=O)c1ccccc1F)C(=O)N1CCN(C(=O)c2cccc3ccccc23)CC1 [Inhibitor 62, (S)-N-(1-(4-(1-naphthoyl)piperazin-1-yl)-6-acrylamido-1-oxohexan-2-yl)-2-fluorobenzamide]",10 ± 2.6 µM,0.0065 s⁻¹,657 M⁻¹ s⁻¹,
"C=CC(=O)NCCCC[C@H](NC(=O)c1cccc(F)c1)C(=O)N1CCN(C(=O)c2cccc3ccccc23)CC1 [Inhibitor 63, (S)-N-(1-(4-(1-naphthoyl)piperazin-1-yl)-6-acrylamido-1-oxohexan-2-yl)-3-fluorobenzamide]",13.4 ± 3.5 µM,0.0107 s⁻¹,797 M⁻¹ s⁻¹,Ki [4]: 9.9 µM; kinact [5]: 0.0085 s⁻¹; kinact/KI [6]: 860 M⁻¹ s⁻¹
"C=CC(=O)NCCCC[C@H](NC(=O)c1ccc(F)cc1)C(=O)N1CCN(C(=O)c2cccc3ccccc23)CC1 [Inhibitor 64, (S)-N-(1-(4-(1-naphthoyl)piperazin-1-yl)-6-acrylamido-1-oxohexan-2-yl)-4-fluorobenzamide]",16.2 ± 7.5 µM,0.015 s⁻¹,923 M⁻¹ s⁻¹,Ki [4]: 11.6 µM; kinact [5]: 0.0117 s⁻¹; kinact/KI [6]: 1010 M⁻¹ s⁻¹
"C=CC(=O)NCCCC[C@H](NC(=O)c1ccc2ccccc2c1)C(=O)N1CCN(C(=O)c2cccc3ccccc23)CC1 [Inhibitor 65, (S)-N-(1-(4-(1-naphthoyl)piperazin-1-yl)-6-acrylamido-1-oxohexan-2-yl)-2-naphthamide]",8 ± 1.8 µM,0.00483 s⁻¹,608 M⁻¹ s⁻¹,
"C=CC(=O)NCCCC[C@H](NC(=O)c1cccc2ccccc12)C(=O)N1CCN(C(=O)c2cccc3ccccc23)CC1 [Inhibitor 66, (S)-N-(1-(4-(1-naphthoyl)piperazin-1-yl)-6-acrylamido-1-oxohexan-2-yl)-1-naphthamide]",20.3 ± 5.1 µM,,,Ki: 9.3 µM; kinact: 0.00433 s⁻¹; kinact/KI: 458 M⁻¹ s⁻¹; kinact/KI (pH 6.95): 335 M⁻¹ s⁻¹
"C=CC(=O)NCCCC[C@H](NC(=O)CCc1ccccc1)C(=O)N1CCN(C(=O)c2cccc3ccccc23)CC1 [Inhibitor 68, (S)-N-(6-(4-(1-naphthoyl)piperazin-1-yl)-6-oxo-5-(3-phenylpropanamido)hexyl)acrylamide]",2.8 ± 0.3 µM,0.01 s⁻¹,3570 M⁻¹ s⁻¹,
"C=CC(=O)NCCCC[C@H](NC(=O)CCCc1ccccc1)C(=O)N1CCN(C(=O)c2cccc3ccccc23)CC1 [Inhibitor 69, (S)-N-(1-(4-(1-naphthoyl)piperazin-1-yl)-6-acrylamido-1-oxohexan-2-yl)-4-phenylbutanamide]",5.3 ± 0.6 µM,0.0035 s⁻¹,660 M⁻¹ s⁻¹,
"C=CC(=O)NCCCC[C@H](NC(=O)Cc1ccc(F)cc1)C(=O)N1CCN(C(=O)c2cccc3ccccc23)CC1 [Inhibitor 70, (S)-N-(6-(4-(1-naphthoyl)piperazin-1-yl)-5-(2-(4-fluorophenyl)acetamido)-6-oxohexyl)acrylamide]",4.2 ± 0.9 µM,0.00817 s⁻¹,1980 M⁻¹ s⁻¹,
"C=CC(=O)NCCCC[C@H](NC(=O)Cc1cccc(F)c1)C(=O)N1CCN(C(=O)c2cccc3ccccc23)CC1 [Inhibitor 71, (S)-N-(6-(4-(1-naphthoyl)piperazin-1-yl)-5-(2-(3-fluorophenyl)acetamido)-6-oxohexyl)acrylamide]",4.9 ± 0.5 µM,0.0125 s⁻¹,2580 M⁻¹ s⁻¹,
"C=CC(=O)NCCCC[C@H](NC(=O)Cc1cccc(Cl)c1)C(=O)N1CCN(C(=O)c2cccc3ccccc23)CC1 [Inhibitor 73, (S)-N-(6-(4-(1-naphthoyl)piperazin-1-yl)-5-(2-(3-chlorophenyl)acetamido)-6-oxohexyl)acrylamide]",1 ± 0.5 µM,0.005 s⁻¹,4830 M⁻¹ s⁻¹,
"C=CC(=O)NCCCC[C@H](NC(=O)Cc1ccccc1OC)C(=O)N1CCN(C(=O)c2cccc3ccccc23)CC1 [Inhibitor 75, (S)-N-(6-(4-(1-naphthoyl)piperazin-1-yl)-5-(2-(2-methoxyphenyl)acetamido)-6-oxohexyl)acrylamide]",4.6 ± 2.9 µM,0.0233 s⁻¹,4980 M⁻¹ s⁻¹,
"C=CC(=O)NCCCC[C@H](NC(=O)Cc1cccc(Cl)c1Cl)C(=O)N1CCN(C(=O)c2cccc3ccccc23)CC1 [Inhibitor 78, (S)-N-(6-(4-(1-naphthoyl)piperazin-1-yl)-5-(2-(2,3-dichlorophenyl)acetamido)-6-oxohexyl)acrylamide]",2.7 ± 2.8 µM,0.00767 s⁻¹,2830 M⁻¹ s⁻¹,
"C=CC(=O)NCCCC[C@H](NC(=O)Cc1ccc(Cl)c(Cl)c1)C(=O)N1CCN(C(=O)c2cccc3ccccc23)CC1 [Inhibitor 79, (S)-N-(6-(4-(1-naphthoyl)piperazin-1-yl)-5-(2-(3,4-dichlorophenyl)acetamido)-6-oxohexyl)acrylamide]",0.58 ± 0.3 µM,0.00133 s⁻¹,2180 M⁻¹ s⁻¹,
"C=CC(=O)NCCCC[C@H](NC(=O)Cc1ccc(F)cc1F)C(=O)N1CCN(C(=O)c2cccc3ccccc23)CC1 [Inhibitor 80, (S)-N-(6-(4-(1-naphthoyl)piperazin-1-yl)-5-(2-(2,4-difluorophenyl)acetamido)-6-oxohexyl)acrylamide]",2.8 ± 0.9 µM,0.0103 s⁻¹,3730 M⁻¹ s⁻¹,
"C=CC(=O)NCCCC[C@H](NC(=O)Cc1ccccc1C(F)(F)F)C(=O)N1CCN(C(=O)c2cccc3ccccc23)CC1 [Inhibitor 81, (S)-N-(6-(4-(1-naphthoyl)piperazin-1-yl)-5-(2-(2-trifluoromethylphenyl)acetamido)-6-oxohexyl)acrylamide]",10.1 ± 3.1 µM,0.0167 s⁻¹,1670 M⁻¹ s⁻¹,
C=CC(=O)NCCCC[C@H](NS(=O)(=O)Cc1ccccc1)C(=O)N1CCN(C(=O)c2cccc3ccccc23)CC1 [Inhibitor 88],46.7 ± 10.2 µM,0.00883 s⁻¹,190 M⁻¹ s⁻¹,
"C=CC(=O)NCCCC[C@H](NS(=O)(=O)c1ccccc1)C(=O)N1CCN(C(=O)c2cccc3ccccc23)CC1 [Inhibitor 89, (S)-N-(6-(4-(1-naphthoyl)piperazin-1-yl)-6-oxo-5-(phenylsulfonamido)hexyl)acrylamide]",,,,Ki [4]: 88.8 ± 6.7 µM; kinact [5]: 0.0105 s⁻¹; kinact/KI [6]: 118 M⁻¹ s⁻¹
"C=CC(=O)NCCCC[C@H](NS(=O)(=O)CC)C(=O)N1CCN(C(=O)c2cccc3ccccc23)CC1 [Inhibitor 90, (S)-N-(6-(4-(1-naphthoyl)piperazin-1-yl)-5-(ethylsulfonamido)-6-oxohexyl)acrylamide]",26.6 ± 1.1 µM,0.0138 s⁻¹,518 M⁻¹ s⁻¹,
